Marks after values point to notes of the source that are not given here.
Legend:
UGT1A6 (insect) = target: T1, UGT1A6 (insect) (Homo sapiens, UniProt P19224); assay: 5-HT glucuronidation by recombinant UGT1A6; format: biochemical; settings: for 5-HT glucuronidation, % of the control activity (measured at 0 mM): UGT1A6 (insect), 4 mM 5-HT, n=3
T1 sequence (P19224 27-532): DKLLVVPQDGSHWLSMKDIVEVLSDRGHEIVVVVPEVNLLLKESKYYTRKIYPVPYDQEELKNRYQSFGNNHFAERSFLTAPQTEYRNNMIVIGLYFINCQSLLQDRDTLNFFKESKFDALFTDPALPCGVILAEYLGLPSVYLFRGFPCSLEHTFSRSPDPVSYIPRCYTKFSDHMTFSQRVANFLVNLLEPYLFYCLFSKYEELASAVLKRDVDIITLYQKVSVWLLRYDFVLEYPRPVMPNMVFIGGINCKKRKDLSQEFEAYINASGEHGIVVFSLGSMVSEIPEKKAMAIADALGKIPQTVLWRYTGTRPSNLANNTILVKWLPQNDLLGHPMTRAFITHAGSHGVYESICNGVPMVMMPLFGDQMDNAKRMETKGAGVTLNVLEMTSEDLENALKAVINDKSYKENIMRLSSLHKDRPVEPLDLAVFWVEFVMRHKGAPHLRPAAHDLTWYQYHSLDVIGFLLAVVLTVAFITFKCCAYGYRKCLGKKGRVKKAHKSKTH

UGT1A4 = target: T2, UGT1A4 (Homo sapiens, UniProt P22310); assay: Trifluoperazine glucuronidation by recombinant UGT1A4; format: biochemical; settings: for Trifluoperazine glucuronidation, % of the control activity (measured at 0 mM): UGT1A4, 200 μM trifluoperazine, n=3
T2 sequence (P22310 29-534): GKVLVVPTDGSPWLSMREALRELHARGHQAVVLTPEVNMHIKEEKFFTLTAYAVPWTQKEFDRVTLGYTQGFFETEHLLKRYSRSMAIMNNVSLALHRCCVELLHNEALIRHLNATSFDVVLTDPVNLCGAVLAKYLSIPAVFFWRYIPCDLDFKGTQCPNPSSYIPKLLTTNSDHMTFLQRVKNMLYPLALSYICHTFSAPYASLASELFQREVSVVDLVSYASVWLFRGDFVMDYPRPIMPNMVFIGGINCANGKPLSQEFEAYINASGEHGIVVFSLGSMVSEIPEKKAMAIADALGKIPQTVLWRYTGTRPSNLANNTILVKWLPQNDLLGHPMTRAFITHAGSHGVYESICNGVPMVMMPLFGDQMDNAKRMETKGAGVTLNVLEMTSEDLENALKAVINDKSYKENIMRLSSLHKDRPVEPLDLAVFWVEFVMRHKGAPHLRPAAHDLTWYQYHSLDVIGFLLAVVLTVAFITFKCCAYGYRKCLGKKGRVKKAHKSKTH

UGT2B4 = UGT2B4 (Homo sapiens, UniProt P06133); assay: Codeine glucuronidation by recombinant UGT2B4; format: biochemical; settings: 1 mM codeine, n=3
[1] = system: pooled human liver microsomes (pHLMs); assay: AZT glucuronidation by pHLMs; format: biochemical; settings: pHLM, 500 μM AZT, n=3
UGT2B7 [2] = target: T3, UGT2B7 (Homo sapiens, UniProt P16662); assay: AZT glucuronidation by recombinant UGT2B7; format: biochemical; settings: 500 μM AZT, n=3
T3 sequence (P16662 24-529): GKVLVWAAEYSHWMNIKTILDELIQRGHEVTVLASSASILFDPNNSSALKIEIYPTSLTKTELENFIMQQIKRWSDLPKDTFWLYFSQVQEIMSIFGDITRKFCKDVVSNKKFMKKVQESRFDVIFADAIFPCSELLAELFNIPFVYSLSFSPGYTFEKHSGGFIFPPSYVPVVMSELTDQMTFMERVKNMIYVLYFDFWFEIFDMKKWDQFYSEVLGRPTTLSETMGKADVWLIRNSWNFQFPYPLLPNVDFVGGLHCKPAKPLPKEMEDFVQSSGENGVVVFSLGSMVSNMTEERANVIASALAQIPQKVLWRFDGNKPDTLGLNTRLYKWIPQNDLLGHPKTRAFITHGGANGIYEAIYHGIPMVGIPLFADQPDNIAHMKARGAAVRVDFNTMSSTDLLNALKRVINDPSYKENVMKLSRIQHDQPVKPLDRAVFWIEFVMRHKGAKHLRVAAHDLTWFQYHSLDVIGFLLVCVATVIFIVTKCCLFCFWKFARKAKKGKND

[3] = system: pooled human liver microsomes (pHLMs); assay: Estradiol-17 glucuronidation by pHLMs; format: biochemical; settings: pHLM, 100 μM estradiol, n=3
UGT1A3 = target: T4, UGT1A3 (Homo sapiens, UniProt P35503); assay: Estradiol-17 glucuronidation by recombinant UGT1A3; format: biochemical; settings: 100 μM estradiol, n=3
T4 sequence (P35503 29-534): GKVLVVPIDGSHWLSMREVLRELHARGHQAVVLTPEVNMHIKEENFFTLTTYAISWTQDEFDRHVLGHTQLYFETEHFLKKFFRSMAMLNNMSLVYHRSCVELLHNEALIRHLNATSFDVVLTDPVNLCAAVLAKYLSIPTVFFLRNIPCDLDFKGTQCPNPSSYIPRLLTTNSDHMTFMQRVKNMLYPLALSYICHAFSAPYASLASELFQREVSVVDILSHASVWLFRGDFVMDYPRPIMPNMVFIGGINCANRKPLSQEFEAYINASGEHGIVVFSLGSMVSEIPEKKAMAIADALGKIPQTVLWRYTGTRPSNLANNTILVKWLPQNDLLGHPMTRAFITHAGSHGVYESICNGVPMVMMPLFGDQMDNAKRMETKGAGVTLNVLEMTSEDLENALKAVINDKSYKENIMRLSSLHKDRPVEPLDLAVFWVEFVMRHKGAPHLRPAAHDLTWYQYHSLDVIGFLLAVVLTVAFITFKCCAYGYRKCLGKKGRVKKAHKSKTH

UGT2B7 [4] = target: T3, UGT2B7; assay: Estradiol-17 glucuronidation by recombinant UGT2B7; format: biochemical; settings: for Estradiol-17 glucuronidation, % of the control activity (measured at 0 mM): UGT2B7, 100 μM estradiol, n=3
UGT2B15 = UGT2B15 (Homo sapiens, UniProt P54855); assay: e-4-hydroxy-tamoxifen glucuronidation by insect cell-expressed UGT2B15; format: biochemical; settings: 20 mM saccharolactone, pH-adjusted to 7.5
[5] = system: endogenous β-glucuronidase, insect cell expressed UGT1A1; settings: recombinant UGT1A1 preparation; 10 mM saccharolactone

UGT2B4, sequence (P06133 24-528): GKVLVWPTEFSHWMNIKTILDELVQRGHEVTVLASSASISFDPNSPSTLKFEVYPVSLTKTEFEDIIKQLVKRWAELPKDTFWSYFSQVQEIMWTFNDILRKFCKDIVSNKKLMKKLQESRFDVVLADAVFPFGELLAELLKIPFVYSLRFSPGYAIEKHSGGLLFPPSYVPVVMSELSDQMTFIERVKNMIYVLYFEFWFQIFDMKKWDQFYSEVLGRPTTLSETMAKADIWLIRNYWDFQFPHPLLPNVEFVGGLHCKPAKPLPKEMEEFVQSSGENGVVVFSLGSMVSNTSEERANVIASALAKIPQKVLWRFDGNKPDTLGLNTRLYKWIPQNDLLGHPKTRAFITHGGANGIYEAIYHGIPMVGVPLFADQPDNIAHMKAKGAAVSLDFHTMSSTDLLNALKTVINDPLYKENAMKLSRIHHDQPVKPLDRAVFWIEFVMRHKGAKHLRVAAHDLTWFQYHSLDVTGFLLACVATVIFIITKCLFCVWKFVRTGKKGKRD
UGT2B15, sequence (P54855 24-530): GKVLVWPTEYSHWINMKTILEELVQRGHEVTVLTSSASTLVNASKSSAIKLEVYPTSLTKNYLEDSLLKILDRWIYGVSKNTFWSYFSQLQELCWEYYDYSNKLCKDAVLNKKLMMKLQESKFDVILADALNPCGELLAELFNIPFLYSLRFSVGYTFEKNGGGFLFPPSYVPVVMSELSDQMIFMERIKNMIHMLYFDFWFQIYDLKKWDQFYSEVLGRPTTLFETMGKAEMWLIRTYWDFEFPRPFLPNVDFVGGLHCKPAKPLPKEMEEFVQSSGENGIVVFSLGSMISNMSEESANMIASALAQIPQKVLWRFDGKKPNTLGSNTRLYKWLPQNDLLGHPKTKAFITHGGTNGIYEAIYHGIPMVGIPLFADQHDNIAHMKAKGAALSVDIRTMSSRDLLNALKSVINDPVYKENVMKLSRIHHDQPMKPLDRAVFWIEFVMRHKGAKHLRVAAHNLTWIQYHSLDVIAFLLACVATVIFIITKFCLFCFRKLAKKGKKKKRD

SMILES: O=C(O)[C@@H](O)[C@H]1OC(=O)[C@H](O)[C@H]1O [saccharolactone, D-saccharic acid 1,4-lactone]
- 5-HT glucuronidation, % of the control activity (measured at 0 mM) (UGT1A6 (insect); 5 mM saccharolactone): 88±7%
- 5-HT glucuronidation, % of the control activity (measured at 0 mM) (UGT1A6 (insect); 20 mM saccharolactone): 96±0%
- effect on 5-hydroxytryptamine glucuronidation (UGT1A6 (insect); UGT1A6 expressed in insect cells, saccharolactone up to 20 mM): no effect
- Trifluoperazine glucuronidation, % of the control activity (measured at 0 mM) (UGT1A4; 5 mM saccharolactone): 90±4%
- Trifluoperazine glucuronidation, % of the control activity (measured at 0 mM) (UGT1A4; 20 mM saccharolactone): 82±5 ^a %
- inhibition at 20 mM (UGT1A4; human, pH 7.5, probe trifluoperazine): 18%
- Codeine glucuronidation, % of the control activity (measured at 0 mM) (UGT2B4; 5 mM saccharolactone): 91±4%
- Codeine glucuronidation, % of the control activity (measured at 0 mM) (UGT2B4; 20 mM saccharolactone): 88±2%
- AZT glucuronidation, % of the control activity (measured at 0 mM) ([1]; 1 mM saccharolactone): 96±2%
- AZT glucuronidation, % of the control activity (measured at 0 mM) ([1]; 2 mM saccharolactone): 98±2%
- AZT glucuronidation, % of the control activity (measured at 0 mM) ([1]; 5 mM saccharolactone): 94±2%
- AZT glucuronidation, % of the control activity (measured at 0 mM) ([1]; 10 mM saccharolactone): 94±3%
- AZT glucuronidation, % of the control activity (measured at 0 mM) ([1]; 20 mM saccharolactone): 94±1%
- AZT glucuronidation, % of the control activity (measured at 0 mM) (UGT2B7 [2]; 5 mM saccharolactone): 102±2%
- AZT glucuronidation, % of the control activity (measured at 0 mM) (UGT2B7 [2]; 20 mM saccharolactone): 102±8%
- Estradiol-17 glucuronidation, % of the control activity (measured at 0 mM) ([3]; 1 mM saccharolactone): 71±4 ^a %
- Estradiol-17 glucuronidation, % of the control activity (measured at 0 mM) ([3]; 2 mM saccharolactone): 81±8%
- Estradiol-17 glucuronidation, % of the control activity (measured at 0 mM) ([3]; 5 mM saccharolactone): 78±7 ^a %
- Estradiol-17 glucuronidation, % of the control activity (measured at 0 mM) ([3]; 10 mM saccharolactone): 68±2%
- Estradiol-17 glucuronidation, % of the control activity (measured at 0 mM) ([3]; 20 mM saccharolactone): 66±6 ^a %
- Estradiol-17 glucuronidation, % of the control activity (measured at 0 mM) (UGT1A3; 5 mM saccharolactone): 90±14%
- Estradiol-17 glucuronidation, % of the control activity (measured at 0 mM) (UGT1A3; 20 mM saccharolactone): 98±10%
- Estradiol-17 glucuronidation, % of the control activity (measured at 0 mM) (UGT2B7 [4]; 5 mM saccharolactone): 97±2%
- Estradiol-17 glucuronidation, % of the control activity (measured at 0 mM) (UGT2B7 [4]; 20 mM saccharolactone): 87±7 ^a %
- reduction in estradiol-17 glucuronidation activity (UGT2B7 [4]; recombinant UGT2B7, 20 mM saccharolactone, p<0.05): 13%
- decrease in e-4-hydroxy-tamoxifen glucuronidation activity (UGT2B15): 25%
- inhibition of estradiol glucuronide hydrolysis [5]: effective in the inhibition of hydrolysis

Source: PMC2697495 (The Journal of pharmacy and pharmacology, 2008)
